Source: patent publication US7696212B2, “Xanthine derivatives, the preparation thereof and their use as pharmaceutical compositions” (Boehringer Ingelheim Pharma GmbH and Co. KG, priority 2002, dated 2010)
pIC50: −log10 of the molar value. Where a name gives a salt, the structure may show the parent alone.

Target: T1, DPP-IV (Homo sapiens, UniProt P27487)
T1 construct: an extract of human colon carcinoma cell line Caco-2 is used as the DPP IV source; endogenous in cells; host or cells: Caco-2 (human colon carcinoma), differentiated to induce DPP-IV expression; solubilised in Nonidet-P40 buffer
Test: DPP-IV assay with extract of Caco-2 cells as DPP IV source, AFC substrate, fluorescence
Format: biochemical
Settings: extract of human colon carcinoma cell line Caco-2 as DPP IV source; substrate 100 μM; 60 minutes at ambient temperature; read-out: DPP IV inhibition IC50
Description: The differentiation of the cells in order to induce the DPP-IV expression was carried out as described by Reiher et al. in an article entitled “Increased expression of intestinal cell line Caco-2”, which appeared in Proc. Natl. Acad. Sci. Vol. 90, pages 5757-5761 (1993). The cell extract was obtained from cells solubilised in a buffer (10 mM Tris HCl, 0.15 M NaCl, 0.04 t.i.u. aprotinin, 0.5% Nonidet-P40, pH 8.0) by centrifuging at 35,000 g for 30 minutes at 4° C. (to remove cell debris).
The DPP-IV assay was carried out as follows:
50 μl substrate solution (AFC; AFC is amido-4-trifluoromethylcoumarin), final concentration 100 μM, were placed in black microtitre plates. 20 μl of assay buffer (final concentrations 50 mM Tris HCl pH 7.8, 50 mM NaCl, 1% DMSO) was pipetted in. The reaction was started by adding 30 μl of solubilised Caco-2 protein (final concentration 0.14 μg of protein per well). The test substances to be investigated were typically added prediluted in 20 μl, and the volume of assay buffer was then reduced accordingly. The reaction was carried out at ambient temperature, incubating for 60 minutes. Then the fluorescence was measured in a Victor 1420 Multilabel Counter, the excitation wavelength being 405 nm and the emission wavelength being 535 nm. Blank readings (corresponding to 0% activity) were obtained in mixtures without any Caco-2 protein (volume replaced by assay buffer), control values (corresponding to 100% activity) were obtained in mixtures with no substance added. […]

T1 sequence (P27487 whole entry): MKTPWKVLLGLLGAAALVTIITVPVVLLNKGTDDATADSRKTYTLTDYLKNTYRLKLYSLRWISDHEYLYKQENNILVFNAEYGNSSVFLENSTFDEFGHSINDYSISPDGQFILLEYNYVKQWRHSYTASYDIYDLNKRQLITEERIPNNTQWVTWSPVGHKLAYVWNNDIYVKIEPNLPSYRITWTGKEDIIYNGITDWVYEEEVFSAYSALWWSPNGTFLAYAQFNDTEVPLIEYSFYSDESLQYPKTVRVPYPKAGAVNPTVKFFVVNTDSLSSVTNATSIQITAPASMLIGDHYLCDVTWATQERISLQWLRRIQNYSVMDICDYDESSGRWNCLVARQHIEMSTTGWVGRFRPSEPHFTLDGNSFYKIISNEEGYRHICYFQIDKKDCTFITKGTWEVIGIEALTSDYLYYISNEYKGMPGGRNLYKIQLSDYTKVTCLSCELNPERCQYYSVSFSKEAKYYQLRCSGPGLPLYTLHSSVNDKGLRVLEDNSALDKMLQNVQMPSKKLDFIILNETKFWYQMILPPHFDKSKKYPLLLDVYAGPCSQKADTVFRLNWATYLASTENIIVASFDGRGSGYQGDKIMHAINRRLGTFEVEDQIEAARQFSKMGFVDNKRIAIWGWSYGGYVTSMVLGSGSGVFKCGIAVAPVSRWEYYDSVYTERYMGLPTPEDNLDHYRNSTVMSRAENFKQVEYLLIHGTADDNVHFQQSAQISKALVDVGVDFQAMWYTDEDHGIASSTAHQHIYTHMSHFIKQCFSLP

Structure (SMILES) | pIC50
CC#CCn1c(N2CCCC(N)C2)nc2c1c(=O)n(CC1=NC(C)(C(=O)OC)Cc3ccccc31)c(=O)n2C (centres unmarked) [1(1), 1-[(3-methoxycarbonyl-3-methyl-3,4-dihydro-isoquinolin-1-yl]methyl]-3-methyl-7-(2-butyn-1-yl)-8-(3-amino-piperidin-1-yl)-xanthine] | 7.49
CC#CCn1c(N2CCCC(N)C2)nc2c1c(=O)n(Cc1nc3ccccc3c3ccccc13)c(=O)n2C (centres unmarked) [1(3), 1-[(phenanthridin-6-yl)methyl]-3-methyl-7-(2-butyn-1-yl)-8-(3-amino-piperidin-1-yl)-xanthine-dihydrochloride] | 8.30
CC#CCn1c(N2CCCC(N)C2)nc2c1c(=O)n(Cc1nc3c(c4ccccc14)CCCC3)c(=O)n2C (centres unmarked) [1(4), 1-[(1,2,3,4-tetrahydro-phenanthridin-6-yl)methyl]-3-methyl-7-(2-butyn-1-yl)-8-(3-amino-piperidin-1-yl)-xanthine x trifluoroacetic acid] | 8.30
CC#CCn1c(N2CCCC(N)C2)nc2c1c(=O)n(CC1=NC(C(F)(F)F)Cc3ccccc31)c(=O)n2C (centres unmarked) [1(7), 1-[(3-trifluoromethyl-3,4-dihydro-isoquinolin-1-yl)methyl]-3-methyl-7-(2-butyn-1-yl)-8-(3-amino-piperidin-1-yl)-xanthine x trifluoroacetic acid] | 7.96
CC#CCn1c(N2CCC[C@@H](N)C2)nc2c1c(=O)n(CC1=Nc3ccccc3Oc3ccccc31)c(=O)n2C [1(8), 1-[(dibenzo[b,f][1,4]oxazepin-11-yl)methyl]-3-methyl-7-(2-butyn-1-yl)-8-((R)-3-amino-piperidin-1-yl)-xanthine] | 8.40
CC#CCn1c(N2CCCC(N)C2)nc2c1c(=O)n(CC1=Nc3ccccc3CN1)c(=O)n2C (centres unmarked) [1(10), 1-[(3,4-dihydro-quinazolin-2-yl)methyl]-3-methyl-7-(2-butyn-1-yl)-8-(3-amino-piperidin-1-yl)-xanthine] | 8.10
CC#CCn1c(N2CCCC(N)C2)nc2c1c(=O)n(CC1=Nc3ccccc3N(C)c3ccccc31)c(=O)n2C (centres unmarked) [1(12), 1-[(5-methyl-5H-dibenzo[b,e][1,4]diazepin-11-yl)methyl]-3-methyl-7-(2-butyn-1-yl)-8-(3-amino-piperidin-1-yl)-xanthine] | 7.85
CC#CCn1c(N2CCCC(N)C2)nc2c1c(=O)n(Cc1ccc3nonc3c1)c(=O)n2C (centres unmarked) [1(15), 1-[(benzo[1,2,5]oxadiazol-5-yl)methyl]-3-methyl-7-(2-butyn-1-yl)-8-(3-amino-piperidin-1-yl)-xanthine] | 7.96
CC#CCn1c(N2CCC[C@@H](N)C2)nc2c1c(=O)n(Cc1nc3ccccc3c3ccccc13)c(=O)n2C1CC1 [1(20), 1-[(phenanthridin-6-yl)methyl]-3-cyclopropyl-7-(2-butyn-1-yl)-8-((R)-3-amino-piperidin-1-yl)-xanthine] | 8.00
CC#CCn1c(N2CCCC(N)C2)nc2c1c(=O)n(Cc1nc3ccccc3c3ncccc13)c(=O)n2C (centres unmarked) [1(25), 1-[(benzo[h][1,6]naphthyridin-5-yl)methyl]-3-methyl-7-(2-butyn-1-yl)-8-(3-amino-piperidin-1-yl)-xanthine] | 8.15

The next lines start with the values.

pIC50 | Structure (SMILES)
8.15 | CC#CCn1c(N2CCCC(N)C2)nc2c1c(=O)n(Cc1nc3ccccc3c3ccnn13)c(=O)n2C (centres unmarked) [1(26), 1-[(pyrazolo[1,5-c]quinazolin-5-yl)methyl]-3-methyl-7-(2-butyn-1-yl)-8-(3-amino-piperidin-1-yl)-xanthine]
8.70 | CC#CCn1c(N2CCCC(N)C2)nc2c1c(=O)n(Cc1nc3ncccc3c3ccccc13)c(=O)n2C (centres unmarked) [1(27), 1-[(benzo[c][1,8]naphthyridin-6-yl)methyl]-3-methyl-7-(2-butyn-1-yl)-8-(3-amino-piperidin-1-yl)-xanthine]
8.70 | CC#CCn1c(N2CCC[C@@H](N)C2)nc2c1c(=O)n(Cc1nc3cccnc3c3ccccc13)c(=O)n2C [1(28), 1-[(benzo[c][1,5]naphthyridin-6-yl)methyl]-3-methyl-7-(2-butyn-1-yl)-8-((R)-3-amino-piperidin-1-yl)-xanthine]
8.52 | CC#CCn1c(N2CCC[C@@H](N)C2)nc2c1c(=O)n(CC1=Nc3cccc4cccc(c34)N1)c(=O)n2C [1(29), 1-[(1H-perimidin-2-yl)methyl]-3-methyl-7-(2-butyn-1-yl)-8-((R)-3-amino-piperidin-1-yl)-xanthine]
8.52 | CC#CCn1c(N2CCC[C@@H](N)C2)nc2c1c(=O)n(Cc1cc3nccnc3c3ccccc13)c(=O)n2C [1(30), 1-[(benzo[f]quinoxalin-6-yl)methyl]-3-methyl-7-(2-butyn-1-yl)-8-((R)-3-amino-piperidin-1-yl)-xanthine]
8.40 | CC#CCn1c(N2CCCC(N)C2)nc2c1c(=O)n(Cc1cn3c(ccc4ccccc43)n1)c(=O)n2C (centres unmarked) [1(32)]
8.40 | CC#CCn1c(N2CCC[C@@H](N)C2)nc2c1c(=O)n(Cc1nc3ccccc3c3ccccc13)c(=O)n2C [1(33), 1-[(phenanthridin-6-yl)methyl]-3-methyl-7-(2-butyn-1-yl)-8-((R)-3-amino-piperidin-1-yl)-xanthine]
8.22 | C/C=C/Cn1c(N2CCC[C@@H](N)C2)nc2c1c(=O)n(CC1=NCC(=O)Nc3ccccc31)c(=O)n2C [Example 1(2), 1-[(2-oxo-2,3-dihydro-1H-benzo[e][1,4]diazepin-5-yl)methyl]-3-methyl-7-((E)-2-buten-1-yl)-8-((R)-3-amino-piperidin-1-yl)-xanthine]
7.89 | CC(C)=CCn1c(N2CCCC(N)C2)nc2c1c(=O)n(CC1=CS(=O)(=O)N(C)c3ccccc31)c(=O)n2C (centres unmarked) [Example 1, 1-[(1-methyl-2,2-dioxo-1H-benzo[c][1,2]thiazin-4-yl)methyl]-3-methyl-7-(3-methyl-2-buten-1-yl)-8-(3-amino-piperidin-1-yl)-xanthine]
8.22 | CC#CCn1c(N2CCCC(N)C2)nc2c1c(=O)n(CC1=NCCOc3ccccc31)c(=O)n2C (centres unmarked) [Example 2, 1-[(2,3-dihydro-benzo[f][1,4]oxazepin-5-yl)methyl]-3-methyl-7-(2-butyn-1-yl)-8-(3-amino-piperidin-1-yl)-xanthine]
7.70 | CC(C)=CCn1c(N2CCCC(N)C2)nc2c1c(=O)n(/C=C1\NC(=O)c3ccccc31)c(=O)n2C (centres unmarked) [Example 3, 1-[(3-oxo-2,3-dihydro-isoindol-1-ylidene)methyl]-3-methyl-7-(3-methyl-2-buten-1-yl)-8-(3-amino-piperidin-1-yl)-xanthine]

Test system: rats
Test: Tolerability after oral administration to rats (behaviour)
Format: in vivo, rat
Settings: 10 mg/kg by oral route

Structure (SMILES) | changes in the animals' behaviour
C/C=C/Cn1c(N2CCC[C@@H](N)C2)nc2c1c(=O)n(CC1=NCC(=O)Nc3ccccc31)c(=O)n2C [Example 1(2), 1-[(2-oxo-2,3-dihydro-1H-benzo[e][1,4]diazepin-5-yl)methyl]-3-methyl-7-((E)-2-buten-1-yl)-8-((R)-3-amino-piperidin-1-yl)-xanthine] | no changes in the animals' behaviour could be detected

Test system: not given
Test: not given
Settings: not given

melting point [°C] | Structure (SMILES)
200 to 205 | CC(C)=CCn1c(N2CCCC(N)C2)nc2c1c(=O)n(CC1=CS(=O)(=O)N(C)c3ccccc31)c(=O)n2C (centres unmarked) [Example 1, 1-[(1-methyl-2,2-dioxo-1H-benzo[c][1,2]thiazin-4-yl)methyl]-3-methyl-7-(3-methyl-2-buten-1-yl)-8-(3-amino-piperidin-1-yl)-xanthine]
